Reference: US9108926B2, “Disubstituted 5-fluoro-pyrimidines” (Bayer Intellectual Property GmbH, priority 2011, dated 2015)

Experiments:
HeLa cells = test: Proliferation assay, HeLa; type: cell-based; settings: Homo sapiens, 96 h, 4 days, crystal violet, read-out: Inhibition of HeLa cell proliferation IC50
Procedure: (§1) After 24 hours, the cells of one plate (zero-point plate) were stained with crystal violet (see below), while the medium of the other plates was replaced by fresh culture medium (200 μl), to which the test substances were added in various concentrations (0 μM, as well as in the range of 0.001-10 μM; the final concentration of the solvent dimethyl sulfoxide was 0.5%). The cells were incubated for 4 days in the presence of test substances. Cell proliferation was determined by staining the cells with crystal violet: the cells were fixed by adding 20 μl/measuring point of an 11% glutaric aldehyde solution for 15 minutes at room temperature. After three washing cycles of the fixed cells with water, the plates were dried at room temperature. The cells were stained by adding 100 μl/measuring point of a 0.1% crystal violet solution (pH 3.0). After three washing cycles of the stained cells with water, the plates were dried at room temperature. The dye was dissolved by adding 100 μl/measuring point of a 10% acetic acid solution. […] The change of cell number, in percent, was calculated by normalization of the measured values to the extinction values of the zero-point plate (=0%) and the extinction of the untreated (0 μm) cells (=100%).

HeLa-MaTu-ADR cells = test: Proliferation assay, HeLa-MaTu-ADR; type: cell-based; settings: Homo sapiens, 96 h; HeLa-MaTu-ADR, 4 days, crystal violet; read-out: Inhibition of HeLa-MaTu-ADR cell proliferation IC50
Procedure: as §1

NCI-H460 cells = test: Proliferation assay, NCI-H460; type: cell-based; settings: Homo sapiens, 96 h; NCI-H460, 4 days, crystal violet; read-out: Inhibition of NCI-H460 cell proliferation IC50
Procedure: as §1

DU145 cells = test: Proliferation assay, DU145; type: cell-based; settings: Homo sapiens, DU-145, 96 h; DU145, 4 days, crystal violet; read-out: Inhibition of DU145 cell proliferation IC50
Procedure: as §1

Caco-2 cells = test: Proliferation assay, Caco-2; type: cell-based; settings: Homo sapiens, 96 h; Caco-2, 4 days, crystal violet; read-out: Inhibition of Caco-2 cell proliferation IC50
Procedure: as §1

B16F10 cells = test: Proliferation assay, B16F10; type: cell-based; settings: Mus musculus, B16-F10, 96 h; B16F10, 4 days, crystal violet; read-out: Inhibition of B16F10 cell proliferation IC50
Procedure: as §1

A2780 cells = test: Proliferation assay, A2780; type: cell-based; settings: Homo sapiens, 96 h; A2780, 4 days, crystal violet; read-out: Inhibition of A2780 cell proliferation IC50
Procedure: Cultivated tumour cells (HeLa, human cervical tumour cells, ATCC CCL-2; NCI-H460, human non-small cell lung carcinoma cells, ATCC HTB-177; A2780, human ovarian carcinoma cells, ECACC #93112519; DU 145, hormone-independent human prostate carcinoma cells, ATCC HTB-81; HeLa-MaTu-ADR, multidrug-resistant human cervical carcinoma cells, EPO-GmbH Berlin; Caco-2, human colorectal carcinoma cells, ATCC HTB-37; B16F10, mouse melanoma cells, ATCC CRL-6475) were plated at a density of 5,000 cells/well (DU145, HeLa-MaTu-ADR), 3,000 cells/well (NCI-H460, HeLa), 2,500 cells/well (A2780), 1,500 cells/well (Caco-2), or 1,000 cells/well (B16F10) in a 96-well multititer plate in 200 μL of their respective growth medium supplemented 10% fetal calf serum. […] Cell proliferation was determined by staining the cells with crystal violet: the cells were fixed by adding 20 μl/measuring point of an 11% glutaric aldehyde solution for 15 minutes at room temperature. […] The extinction was determined by photometry at a wavelength of 595 nm. The change of cell number, in percent, was calculated by normalization of the measured values to the extinction values of the zero-point plate (=0%) and the extinction of the untreated (0 μm) cells (=100%).

Caco-2 permeation assay = type: in vitro ADME; settings: human, pH 7.2, Caco-2, test compound 2 μM
Procedure: 4. Caco-2 Permeation Assay:
Caco-2 cells (purchased from DSMZ Braunschweig, Germany) were seeded at a density of 4.5×10^4 cells per well on 24 well insert plates, 0.4 μm pore size, and grown for 15 days in DMEM medium supplemented with 10% fetal bovine serum, 1% GlutaMAX (100×, GIBCO), 100 U/mL penicillin, 100 μg/mL streptomycin (GIBCO) and 1% non essential amino acids (100×). Cells were maintained at 37° C. in a humified 5% CO2 atmosphere. Medium was changed every 2-3 day. Before running the permeation assay, the culture medium was replaced by a FCS-free hepes-carbonate transport buffer (pH 7.2). For assessment of monolayer integrity the transepithelial electrical resistance (TEER) was measured. Test compounds were predissolved in DMSO and added either to the apical or basolateral compartment in final concentration of 2 μM in transport buffer. Before and after 2 h incubation at 37° C. samples were taken from both compartments. Analysis of compound content was done after precipitation with methanol by LC/MS/MS analysis. Permeability (Papp) was calculated in the apical to basolateral (A→B) and basolateral to apical (B→A) directions. […] The efflux ratio basolateral (B) to apical (A) was calculated by dividing the Papp B−A by the Papp A−B. In addition the compound recovery was calculated. The following reference compounds were used for the classification of the permeability class: Antipyrine, Pyrazosin, Verapamil, Fluvastatin, Cimetidine, Ranitidine, Atenolol, Sulfasalazine.

CDK2/CycE = CDK2/CycE (Homo sapiens, UniProt P24941); test: CDK2/CycE kinase assay (TR-FRET, Method 2)
Source text: CDK2/CycE-inhibitory activity of compounds of the present invention was quantified employing the CDK2/CycE TR-FRET assay as described in the following paragraphs:
Recombinant fusion proteins of GST and human CDK2 and of GST and human CycE, expressed in insect cells (Sf9) and purified by Glutathion-Sepharose affinity chromatography, were purchased from ProQinase GmbH (Freiburg, Germany). As substrate for the kinase reaction biotinylated peptide biotin-Ttds-[sequence] (C-terminus in amid form) was used which can be purchased e.g. form the company JERINI Peptide Technologies (Berlin, Germany).
For the assay 50 nl of a 100 fold concentrated solution of the test compound in DMSO was pipetted into a black low volume 384 well microtiter plate (Greiner Bio-One, Frickenhausen, Germany), 2 μl of a solution of CDK2/CycE in aqueous assay buffer [50 mM Tris/HCl pH 8.0, 10 mM MgCl2, 1.0 mM dithiothreitol, 0.1 mM sodium ortho-vanadate, 0.01% (v/v) Nonidet-P40 (Sigma)] were added and the mixture was incubated for 15 min at 22° C. to allow pre-binding of the test compounds to the enzyme before the start of the kinase reaction. Then the kinase reaction was started by the addition of 3 μl of a solution of adenosine-tri-phosphate (ATP, 16.7 μM=>final conc. in the 5 μl assay volume is 10 μM) and substrate (1.25 μM=>final conc. in the 5 μl assay volume is 0.75 μM) in assay buffer and the resulting mixture was incubated for a reaction time of 25 min at 22° C. The concentration of CDK2/CycE was adjusted depending of the activity of the enzyme lot and was chosen appropriate to have the assay in the linear range, typical concentrations were in the range of 130 ng/mL. The reaction was stopped by the addition of 5 μl of a solution of TR-FRET detection reagents (0.2 μM streptavidine-XL665 [Cisbio Bioassays, Codolet, France] and 1 nM anti-RB(pSer807/pSer811)-antibody from BD Pharmingen [#558389] and 1.2 nM LANCE EU-W1024 labeled anti-mouse IgG antibody [Perkin-Elmer, product no. AD0077]) in an aqueous EDTA-solution (100 mM EDTA, 0.2% (w/v) bovine serum albumin in 100 mM HEPES/NaOH pH 7.0).
The resulting mixture was incubated 1 h at 22° C. to allow the formation of complex between the phosphorylated biotinylated peptide and the detection reagents. Subsequently the amount of phosphorylated substrate was evaluated by measurement of the resonance energy transfer from the Eu-chelate to the streptavidine-XL. Therefore, the fluorescence emissions at 620 nm and 665 nm after excitation at 350 nm was measured in a TR-FRET reader, e.g. a Rubystar (BMG Labtechnologies, Offenburg, Germany) or a Viewlux (Perkin-Elmer). The ratio of the emissions at 665 nm and at 622 nm was taken as the measure for the amount of phosphorylated substrate.

- IC50 (HeLa cells): 0.11 µM
- IC50 (HeLa-MaTu-ADR cells): 0.12 µM
- IC50 (NCI-H460 cells): 0.36 µM
- IC50 (DU145 cells): 0.31 µM
- IC50 (Caco-2 cells): 0.38 µM
- IC50 (B16F10 cells): 0.36 µM
- IC50 (A2780 cells): 0.11 µM
- Papp A→B at 2 h, 2 μM (Caco-2 permeation assay; apical to basolateral, read-out: Papp A-B (Mari)): 9.7 ×10⁻⁶ cm/s
- Papp B→A at 2 h, 2 μM (Caco-2 permeation assay; basolateral to apical, read-out: Papp B-A (Mari)): 3.1 ×10⁻⁶ cm/s
- IC50 (CDK2/CycE): 0.2 µM
SMILES: COc1cc(F)ccc1-c1nc(Nc2cc(F)cc(CS(C)(=O)=O)c2)ncc1F [Example 12, 5-Fluoro-4-(4-fluoro-2-methoxyphenyl)-N-{3-fluoro-5-[(methylsulfonyl)methyl]phenyl}pyrimidin-2-amine]
